The source of these data is patent US10463592B2, “Peptide with anti-aging effect and use thereof” (Osaka University, priority 2013, dated 2019).

Where no end group is shown, it is not given here.

Data set [1] has as its system CD54 expression in THP-1. The data set is described as follows: h-CLAT assay, CD54 expression. The format is cell-based, human. The note with it: positive if RFI of CD54>200; FIG. 3. As for the experimental part:
(§1) Into a 75-cm^2 flask was placed 50 mL of a suspension of the human monocytic cell line THP-1 (JCRB accession number: JCRB0112) at a density of 2.0×10^5 cells/mL in RPMI 1640 culture medium containing 10% FBS and 0.05 mM mercaptoethanol. The cells were precultured for 48 hours. The precultured THP-1 cells were harvested by centrifugation and suspended at 2.0×10^6 cells/mL in RPMI 1640 culture medium containing 10% FBS and 0.05 mM mercaptoethanol. To each well of 24-well plates, 500 μL of the cell suspension was seeded. To each well containing the seeded cell suspension, 500 μL of each peptide in the same culture medium was added. […] Then, 1×10^4 living cells were analyzed by flow cytometry to determine the expression levels of the cell surface antigens. […] The relative fluorescence intensities (RFIs) were calculated from the mean of the measured fluorescence intensities (MFIs) in accordance with the following equation.
(§2) From the survival rates and the RFI values of CD86 and CD54 expressions, the sensitization potentials were evaluated. The sensitization potentials of the test samples were determined to be positive when the RFIs of the antigen expressions in the sample treatment groups satisfy the following equations: the RFI of CD86>150, and the RFI of CD54>200. […]

Data set [2] concerns CD86 expression in THP-1. Put plainly: h-CLAT assay, CD86 expression. The class given is cell-based, human. The note with it: positive if RFI of CD86>150, FIG. 2. As for the experimental part:
Into a 75-cm^2 flask was placed 50 mL of a suspension of the human monocytic cell line THP-1 (JCRB accession number: JCRB0112) at a density of 2.0×10^5 cells/mL in RPMI 1640 culture medium containing 10% FBS and 0.05 mM mercaptoethanol. The cells were precultured for 48 hours. The precultured THP-1 cells were harvested by centrifugation and suspended at 2.0×10^6 cells/mL in RPMI 1640 culture medium containing 10% FBS and 0.05 mM mercaptoethanol. To each well of 24-well plates, 500 μL of the cell suspension was seeded. To each well containing the seeded cell suspension, 500 μL of each peptide in the same culture medium was added. After 24 hours of incubation, the cells were harvested by centrifugation and were washed twice with PBS containing 0.1% BSA (FACS buffer). The cells were then suspended in 600 μL of FACS buffer containing a 0.01% human γ-globulin solution (Sigma, G2388) and incubated at 4° C. for 10 minutes to block the Fc receptor. The cell suspension was then split into three 180-μL aliquots for conducting an antibody reaction. The aliquots were each transferred to a 1.5-mL tube and centrifuged to give a pellet. To each pellet was added 50 μL of each of solutions of three different FITC-conjugated antibodies, i.e., FITC-conjugated CD86 antibody (Pharmingen; Cat #555657), FITC-conjugated CD54 antibody (Dako; Cat #F7143) and FITC-conjugated isotype control (Mouse IgG) antibody (Dako; Cat #X0927), that were adjusted to an appropriate concentration with FACS buffer. The mixture was incubated at 4° C. for 30 minutes. After the incubation, the cells were harvested by centrifugation and washed twice with FACS buffer. The cells were harvested by centrifugation and suspended in 200 μL of FACS buffer containing 0.625 μg/mL propidium iodide. Then, 1×10^4 living cells were analyzed by flow cytometry to determine the expression levels of the cell surface antigens. No gating on forward or side scatter was used. The relative fluorescence intensities (RFIs) were calculated from the mean of the measured fluorescence intensities (MFIs) in accordance with the following equation.
From the survival rates and the RFI values of CD86 and CD54 expressions, the sensitization potentials were evaluated. The sensitization potentials of the test samples were determined to be positive when the RFIs of the antigen expressions in the sample treatment groups satisfy the following equations: the RFI of CD86>150, and the RFI of CD54>200. (2) Results

In data set [3] the test system is human monocytic cell line THP-1. Put plainly: Sensitization test by the h-CLAT assay (overall evaluation). The format is cell-based. As to conditions: even at high concentrations; positive if RFI of CD86>150 and RFI of CD54>200; 24 hours. The method, then:
as §1, §2

On to `CC[C@H](C)[C@H](NC(=O)[C@H](CCCCN)NC(=O)[C@H](CCC(=O)O)NC(=O)[C@H](CCCCN)NC(=O)[C@H](CO)NC(=O)[C@H](CCCCN)NC(=O)[C@H](CCCNC(=N)N)NC(=O)[C@H](Cc1ccccc1)NC(=O)[C@H](Cc1ccccc1)NC(=O)[C@H](CC(=O)O)NC(=O)CNC(=O)[C@H](CC(C)C)NC(=O)[C@@H](N)CC(C)C)C(=O)NCC(=O)N[C@@H](CCCCN)C(=O)N[C@@H](CCC(=O)O)C(=O)N[C@@H](Cc1ccccc1)C(=O)N[C@@H](CCCCN)C(=O)N[C@@H](CCCNC(=N)N)C(=O)N[C@H](C(=O)N[C@H](C(=O)N[C@@H](CCC(N)=O)C(=O)N[C@@H](CCCNC(=N)N)C(=O)N[C@H](C(=O)N[C@@H](CCCCN)C(=O)N[C@@H](CC(=O)O)C(=O)N[C@@H](Cc1ccccc1)C(=O)N[C@@H](CC(C)C)C(=O)N[C@@H](CCCNC(=N)N)C(=O)N[C@@H](CC(N)=O)C(=O)N[C@@H](CC(C)C)C(=O)N[C@H](C(=O)N1CCC[C@H]1C(=O)N[C@@H](CCCNC(=N)N)C(=O)N[C@H](C(=O)N[C@@H](CCC(=O)O)C(=O)N[C@@H](CO)C(=O)O)[C@@H](C)O)C(C)C)[C@@H](C)CC)C(C)C)[C@@H](C)CC` [LL-37], for which the “sensitization potential for CD54 expression” value in data set [1] is listed as “negative”. For the same compound, the “sensitization potential for CD86 expression” value was “positive” in data set [2] (at high concentrations) and “negative” in data set [2] (at low concentrations).

With GIGKFLHSAKKFGKAFVGEIMNS [magainin], the “sensitization potential for CD54 expression” value in data set [1] is “negative”. Besides, the “sensitization potential for CD86 expression” value was “positive” in data set [2] (at high concentrations) and “negative” in data set [2] (at low concentrations).

With Ac-HRLKR-NH2 [OSK-9, HRLKR], in data set [3], the sensitization potential entry was “negative”.

For Ac-IFLHR-NH2 [OSK-6, IFLHR], the sensitization potential entry in data set [3] is on record as “negative”.
